# pIC50: −log10 of the molar value. The source made the active and inactive calls. The calls are words filed in the database; no cut-off is given here.
# Key:
# [1] = test system: Rattus norvegicus; assay: Reduction of amyloid beta-42 level in Sprague-Dawley rat CSF at 100 mg/kg, po after 4 hrs by immunoassay relative to control; type: functional; design: scale not given: the % may be the effect or the level left
# [2] = molecular target: Gamma-secretase; assay: Modulation of gamma-secretase in HEK293 cells expressing guinea pig Swedish mutant SFV-APP695sw assessed as inhibition of amyloid beta-42 production after 16 to 18 hrs by HTRF assay; type: cell-based, Homo sapiens
# [3] = Drug level in Sprague-Dawley rat CSF; type: ADME, Cerebrospinal fluid; details: in vivo, read-out: Ct
# [4] = test system: Plasma; assay: Unbound plasma concentration in Sprague-Dawley rat; type: ADME, cell-free
# [5] = Apparent permeability in pig LLC-PK1 cells; type: ADME, cell-based, Sus scrofa
# [6] = molecular target: Gamma-secretase (Homo sapiens) (UniProt Q96BI3+Q9NZ42+Q8WW43+P49768+Q92542+P49810); assay: Modulation of gamma-secretase in HEK293 cells expressing guinea pig Swedish mutant SFV-APP695sw assessed as inhibition of amyloid beta-42 production at 10 uM after 16 to 18 hrs by HTRF assay relative to control; type: cell-based
# [7] = molecular target: Cytochrome P450 3A4 (Homo sapiens, UniProt P08684); assay: Inhibition of CYP3A4 (unknown origin) after 5 mins; type: ADME
# [8] = Metabolic stability in rat liver microsomes at 1 uM after 30 mins; type: ADME; details: read-out: Stability
# [9] = Ratio of drug level in brain to plasma in mouse at 10 mg/kg, po after 2 hrs; type: ADME, organism-based; design: dose 10 mg/kg, route oral; details: read-out: BPR
# [10] = molecular target: Cytochrome P450 2D6 (Homo sapiens, UniProt P10635); assay: Inhibition of CYP2D6 (unknown origin) after 10 mins; type: ADME
# [11] = Metabolic stability in human liver microsomes at 1 uM after 30 mins; type: ADME; details: read-out: Stability
# [12] = Ratio of drug level in brain to plasma in Sprague-Dawley rat; type: ADME, cell-free; details: read-out: BPR
# [13] = molecular target: Gamma-secretase; assay: Modulation of gamma-secretase in HEK293 cells expressing guinea pig Swedish mutant SFV-APP695sw assessed as inhibition of amyloid beta-40 production after 16 to 18 hrs by HTRF assay; type: cell-based, Homo sapiens
# [14] = test system: Rattus norvegicus; assay: Reduction of amyloid beta-42 level in Sprague-Dawley rat CSF at 1 mg/kg after 4 hrs by immunoassay relative to control; type: functional; design: scale not given: the % may be the effect or the level left
# [15] = test system: Rattus norvegicus; assay: Toxicity in Sprague-Dawley rat assessed as presence of mixed inflammatory infiltrate with mild villus blunting and fusion in duodenum at 1 to 3 mg/kg after 4 days by light microscopic analysis; type: organism-based; design: dose 1-3 mg/kg; details: in vivo, other, 96 h
# [16] = test system: Rattus norvegicus; assay: Toxicity in Sprague-Dawley rat assessed as thickening of hypertrophic zone of tibial physis at 1 to 3 mg/kg after 4 days by light microscopic analysis; type: organism-based; design: dose 1-3 mg/kg; details: in vivo, 96 h
# [17] = test system: Rattus norvegicus; assay: Reduction of amyloid beta-42 level in Sprague-Dawley rat CSF at 3 mg/kg after 4 hrs by immunoassay relative to control; type: functional; design: scale not given: the % may be the effect or the level left
# [18] = AUC (0 to 24 hrs) in Sprague-Dawley rat at 3 mg/kg at day 4; type: ADME, organism-based; design: time < 24 hr, dose 3 mg/kg; details: plasma
# [19] = AUC (0 to 24 hrs) in Sprague-Dawley rat at 3 mg/kg at day 1; type: ADME, organism-based; design: time < 24 hr, dose 3 mg/kg; details: plasma
# [20] = test system: Rattus norvegicus; assay: Toxicity in Sprague-Dawley rat assessed as increase in neutrophils and monocytes in peripheral blood at 1 to 3 mg/kg after 4 days by light microscopic analysis; type: organism-based; design: dose 1-3 mg/kg; details: in vivo, 96 h
# [21] = test system: Rattus norvegicus; assay: Toxicity in Sprague-Dawley rat assessed as thymic cortical lymphoid depletion at 1 to 3 mg/kg after 4 days by light microscopic analysis; type: organism-based; design: dose 1-3 mg/kg; details: in vivo, 96 h
# [22] = test system: Rattus norvegicus; assay: Toxicity in Sprague-Dawley rat assessed as increased goblet cell numbers in duodenum at 1 to 3 mg/kg after 4 days by light microscopic analysis; type: organism-based; design: dose 1-3 mg/kg; details: in vivo, other, 96 h
# [23] = test system: Rattus norvegicus; assay: Toxicity in Sprague-Dawley rat assessed as marginal zone lymphoid depletion in spleen at 1 to 3 mg/kg after 4 days by light microscopic analysis; type: organism-based; design: dose 1-3 mg/kg; details: in vivo, 96 h
# [24] = test system: Plasma; assay: Unbound plasma concentration in Sprague-Dawley rat at 1 mg/kg; type: ADME, organism-based; design: dose 1 mg/kg; details: in vivo
# [25] = Plasma protein binding in Sprague-Dawley rat; type: ADME, cell-free; details: read-out: PPB (converted)
# [26] = test system: Rattus norvegicus; assay: Reduction of amyloid beta-42 level in Sprague-Dawley rat CSF at 3 mg/kg after 24 hrs by immunoassay relative to control; type: functional; design: scale not given: the % may be the effect or the level left
# [27] = test system: Rattus norvegicus; assay: Toxicity in Sprague-Dawley rat assessed as increased goblet cell numbers in colon at 1 to 3 mg/kg after 4 days by light microscopic analysis; type: organism-based; design: dose 1-3 mg/kg; details: in vivo, 96 h
# Sequence of Cytochrome P450 2D6 (P10635 whole entry): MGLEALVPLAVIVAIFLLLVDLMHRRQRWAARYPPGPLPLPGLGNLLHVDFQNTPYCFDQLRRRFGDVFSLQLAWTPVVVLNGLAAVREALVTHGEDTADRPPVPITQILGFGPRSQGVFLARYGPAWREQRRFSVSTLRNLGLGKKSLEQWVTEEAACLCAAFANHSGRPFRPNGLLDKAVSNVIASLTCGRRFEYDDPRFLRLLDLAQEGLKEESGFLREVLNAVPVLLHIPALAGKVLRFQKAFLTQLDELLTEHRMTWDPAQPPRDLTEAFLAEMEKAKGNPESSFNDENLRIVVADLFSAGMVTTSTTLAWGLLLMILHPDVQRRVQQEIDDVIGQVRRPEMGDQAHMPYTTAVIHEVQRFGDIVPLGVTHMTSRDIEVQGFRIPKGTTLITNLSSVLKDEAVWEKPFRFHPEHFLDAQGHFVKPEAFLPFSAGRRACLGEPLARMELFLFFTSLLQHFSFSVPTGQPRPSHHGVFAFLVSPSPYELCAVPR
# Sequence of Cytochrome P450 3A4 (P08684 whole entry): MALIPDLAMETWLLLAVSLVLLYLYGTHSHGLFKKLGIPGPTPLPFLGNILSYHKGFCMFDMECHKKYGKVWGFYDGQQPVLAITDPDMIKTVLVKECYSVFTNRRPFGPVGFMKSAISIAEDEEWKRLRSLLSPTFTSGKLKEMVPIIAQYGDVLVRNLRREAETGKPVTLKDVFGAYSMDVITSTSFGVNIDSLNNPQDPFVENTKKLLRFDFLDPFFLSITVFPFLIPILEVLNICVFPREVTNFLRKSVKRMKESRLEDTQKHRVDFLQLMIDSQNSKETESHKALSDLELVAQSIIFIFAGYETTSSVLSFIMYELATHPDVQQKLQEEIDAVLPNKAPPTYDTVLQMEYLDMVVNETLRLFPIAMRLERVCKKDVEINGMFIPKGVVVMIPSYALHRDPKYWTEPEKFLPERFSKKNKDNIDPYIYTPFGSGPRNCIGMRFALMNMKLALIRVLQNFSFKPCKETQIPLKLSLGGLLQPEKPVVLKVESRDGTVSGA
Compound,pIC50 [2],Cp(f) [4],inhibition [6],pIC50 [7],microsomal CLint at 1 µM [8],pIC50 [10],microsomal CLint at 1 µM [11],Activity [1],other results
Cc1cc(-c2ccc(NC(=O)c3cc(Cl)cc(Cl)c3)cc2)ccn1,< 5.00,–,53%,< 4.57,19 µL/min/mg,< 4.57,91 µL/min/mg,–,Kp at 2 h [9]: 1.46
Cc1cc(-c2ccc(NC(=O)c3cc(C(F)(F)F)cc(C(F)(F)F)c3)cc2)ccn1,< 5.00,–,58%,< 4.57,14 µL/min/mg,< 4.57,106 µL/min/mg,–,–
Cc1cc(-c2ccc(NC(=O)[C@@H](C)c3cc(C(F)(F)F)cc(C(F)(F)F)c3)cc2)ccn1,< 5.00,–,–,< 4.57,< 14 µL/min/mg,5.59,< 14 µL/min/mg,inactive,Kp [12]: 2
C[C@H](NC(=O)[C@@H](O)c1cc(F)cc(F)c1)C(=O)N[C@@H]1C(=O)N(C)c2ccccc2-c2ccccc21,–,1.2 nM,–,–,–,–,–,–,Activity [14]: 33%; Activity [15]: Toxic; Activity [16]: Toxic; Activity [17]: 66%; AUC(0-t) at 24 h [18]: 144 ng·h/mL; AUC(0-t) at 24 h [19]: 386 ng·h/mL; Activity [20]: Toxic; Activity [21]: Toxic; Activity [22]: Toxic; Activity [23]: Toxic; Cp(f) [24]: 0.4 nM; fraction unbound [25]: 0.053; Activity [26]: 37%; Activity [27]: Toxic

# The next lines start with results.
pIC50 [2],Cp(f) [4],inhibition [6],pIC50 [7],microsomal CLint at 1 µM [8],pIC50 [10],microsomal CLint at 1 µM [11],Compound,Activity [1],other results
7.70,290 nM,–,–,–,–,–,Cc1cc(-c2ccc(NC(=O)[C@H](CC(C)C)c3cccc(-c4ccc(N5CCOCC5)cc4)c3)cc2)ccn1,27%,concentration [3]: 2 nM; Papp [5]: < 1 ×10⁻⁶ cm/s
6.89,–,–,–,–,–,–,CCN(CC)c1ccc(C)c(Nc2nc(-c3ccc(-n4cnc(C)c4)cc3)cs2)c1,–,pIC50 [13]: 6.25

# Reference: ChEMBL document CHEMBL3085750, “Discovery of 2-methylpyridine-based biaryl amides as γ-secretase modulators for the treatment of Alzheimer's disease” (Bioorg Med Chem Lett, 2013)
